Test results from ChEMBL document CHEMBL5696442, “Discovery of type II inhibitors of TGFβ-activated kinase 1 (TAK1) and mitogen-activated protein kinase kinase kinase kinase 2 (MAP4K2)” (J Med Chem, 2015).
Activity calls are given as the source filed them. The rule behind the calls is not given here.

How the values were obtained:
[1] = target: Tyrosine-protein kinase JAK1 (Homo sapiens) (UniProt P23458); assay: Inhibition of JAK1 domain2 Lys1 labeling site in human A-375 cells at 0.5 uM by KiNativ Profiling analysis relative to control; format: cell-based
Tyrosine-protein kinase JAK1 (Homo sapiens), sequence (P23458 whole entry, the tested form may be a part): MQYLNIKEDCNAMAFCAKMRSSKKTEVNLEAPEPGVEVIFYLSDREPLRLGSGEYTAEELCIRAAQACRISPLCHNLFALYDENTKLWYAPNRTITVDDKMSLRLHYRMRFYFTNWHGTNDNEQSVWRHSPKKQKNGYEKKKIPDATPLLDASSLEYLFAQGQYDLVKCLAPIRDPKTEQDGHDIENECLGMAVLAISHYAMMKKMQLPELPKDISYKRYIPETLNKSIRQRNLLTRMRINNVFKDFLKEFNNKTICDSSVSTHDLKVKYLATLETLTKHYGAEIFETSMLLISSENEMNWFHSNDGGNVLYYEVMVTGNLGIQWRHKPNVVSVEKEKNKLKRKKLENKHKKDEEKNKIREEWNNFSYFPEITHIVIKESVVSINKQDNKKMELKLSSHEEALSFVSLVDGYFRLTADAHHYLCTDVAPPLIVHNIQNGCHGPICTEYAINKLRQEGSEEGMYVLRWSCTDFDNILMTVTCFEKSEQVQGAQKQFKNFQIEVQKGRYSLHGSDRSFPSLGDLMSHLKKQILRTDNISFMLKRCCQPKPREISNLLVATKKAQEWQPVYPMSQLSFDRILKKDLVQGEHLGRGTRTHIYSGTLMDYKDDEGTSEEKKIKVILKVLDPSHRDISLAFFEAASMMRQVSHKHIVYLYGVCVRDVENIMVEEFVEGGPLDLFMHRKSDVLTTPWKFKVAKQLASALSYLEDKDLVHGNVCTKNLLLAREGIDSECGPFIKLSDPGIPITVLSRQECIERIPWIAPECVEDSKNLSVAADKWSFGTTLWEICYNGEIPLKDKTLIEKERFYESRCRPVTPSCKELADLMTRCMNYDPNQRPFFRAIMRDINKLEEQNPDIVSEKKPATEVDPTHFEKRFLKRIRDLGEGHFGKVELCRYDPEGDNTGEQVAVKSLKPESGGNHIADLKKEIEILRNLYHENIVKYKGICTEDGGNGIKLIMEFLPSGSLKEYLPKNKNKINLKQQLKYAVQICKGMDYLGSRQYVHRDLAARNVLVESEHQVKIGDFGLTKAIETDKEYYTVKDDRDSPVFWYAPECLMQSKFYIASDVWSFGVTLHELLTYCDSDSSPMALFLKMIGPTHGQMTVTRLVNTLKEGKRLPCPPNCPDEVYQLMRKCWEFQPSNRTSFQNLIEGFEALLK

[2] = target: T1, Inhibitor of nuclear factor kappa-B kinase subunit epsilon (Homo sapiens) (UniProt Q14164); assay: Inhibition of IKKe Lys1 labeling site in human A-375 cells at 5 uM by KiNativ Profiling analysis relative to control; format: cell-based
T1 sequence (whole entry): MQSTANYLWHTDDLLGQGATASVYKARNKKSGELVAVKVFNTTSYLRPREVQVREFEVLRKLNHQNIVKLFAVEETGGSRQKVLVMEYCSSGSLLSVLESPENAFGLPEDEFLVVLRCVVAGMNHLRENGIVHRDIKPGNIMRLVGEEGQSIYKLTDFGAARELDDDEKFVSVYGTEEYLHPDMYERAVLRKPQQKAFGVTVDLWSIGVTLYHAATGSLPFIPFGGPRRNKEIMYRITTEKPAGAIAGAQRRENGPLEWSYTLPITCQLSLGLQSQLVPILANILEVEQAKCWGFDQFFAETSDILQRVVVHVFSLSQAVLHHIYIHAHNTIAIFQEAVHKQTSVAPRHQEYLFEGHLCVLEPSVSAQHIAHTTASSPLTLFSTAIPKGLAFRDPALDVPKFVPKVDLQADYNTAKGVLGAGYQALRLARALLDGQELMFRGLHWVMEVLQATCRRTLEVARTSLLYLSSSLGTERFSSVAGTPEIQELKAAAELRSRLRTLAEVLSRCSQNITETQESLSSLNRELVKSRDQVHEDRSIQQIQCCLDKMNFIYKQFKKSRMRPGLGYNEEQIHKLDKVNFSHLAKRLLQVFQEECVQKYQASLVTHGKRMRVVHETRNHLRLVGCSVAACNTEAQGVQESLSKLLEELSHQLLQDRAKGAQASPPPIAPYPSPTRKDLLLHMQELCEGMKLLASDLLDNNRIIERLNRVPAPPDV

[3] = target: T2, NUAK family SNF1-like kinase 1 (Homo sapiens) (UniProt O60285); assay: Inhibition of NuaK1 K2 labeling site in human Huh-7 cells at 1 uM by KiNativ Profiling analysis relative to control; format: cell-based
T2 sequence (whole entry): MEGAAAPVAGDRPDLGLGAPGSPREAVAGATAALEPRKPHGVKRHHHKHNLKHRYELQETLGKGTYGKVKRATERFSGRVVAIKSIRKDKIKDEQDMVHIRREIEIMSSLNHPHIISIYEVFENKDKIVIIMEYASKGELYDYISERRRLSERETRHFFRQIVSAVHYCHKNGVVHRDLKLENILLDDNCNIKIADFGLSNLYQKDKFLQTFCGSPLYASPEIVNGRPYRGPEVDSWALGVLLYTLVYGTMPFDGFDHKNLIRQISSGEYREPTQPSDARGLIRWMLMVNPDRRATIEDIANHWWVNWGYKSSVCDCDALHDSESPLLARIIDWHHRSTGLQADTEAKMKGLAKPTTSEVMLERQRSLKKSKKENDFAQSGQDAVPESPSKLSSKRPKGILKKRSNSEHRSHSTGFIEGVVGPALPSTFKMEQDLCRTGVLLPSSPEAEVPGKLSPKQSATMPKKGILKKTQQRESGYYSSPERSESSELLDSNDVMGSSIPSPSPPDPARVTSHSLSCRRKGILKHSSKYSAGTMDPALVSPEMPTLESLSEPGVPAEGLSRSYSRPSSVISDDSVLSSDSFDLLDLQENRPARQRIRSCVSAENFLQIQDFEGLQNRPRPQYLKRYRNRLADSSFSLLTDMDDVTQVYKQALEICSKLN

[4] = target: T3, Dual specificity mitogen-activated protein kinase kinase 3 (Homo sapiens) (UniProt P46734); assay: Inhibition of MEK3 (unknown origin) at 10 uM by Ambit Kinomescan binding assay
T3 sequence (whole entry): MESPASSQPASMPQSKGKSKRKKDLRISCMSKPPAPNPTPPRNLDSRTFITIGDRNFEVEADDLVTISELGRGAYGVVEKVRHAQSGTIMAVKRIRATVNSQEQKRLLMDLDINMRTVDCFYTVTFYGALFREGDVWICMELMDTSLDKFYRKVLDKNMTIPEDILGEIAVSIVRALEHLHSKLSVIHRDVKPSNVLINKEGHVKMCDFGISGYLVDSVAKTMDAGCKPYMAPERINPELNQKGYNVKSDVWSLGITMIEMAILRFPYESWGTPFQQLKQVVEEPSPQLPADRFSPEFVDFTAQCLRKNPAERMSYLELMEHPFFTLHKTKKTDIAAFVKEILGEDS

[5] = target: T4, Eukaryotic elongation factor 2 kinase (Homo sapiens) (UniProt O00418); assay: Inhibition of eEF2K ATP labeling site in human Huh-7 cell lysate at 1 uM by KiNativ Profiling analysis relative to control; format: subcellular
T4 sequence (whole entry): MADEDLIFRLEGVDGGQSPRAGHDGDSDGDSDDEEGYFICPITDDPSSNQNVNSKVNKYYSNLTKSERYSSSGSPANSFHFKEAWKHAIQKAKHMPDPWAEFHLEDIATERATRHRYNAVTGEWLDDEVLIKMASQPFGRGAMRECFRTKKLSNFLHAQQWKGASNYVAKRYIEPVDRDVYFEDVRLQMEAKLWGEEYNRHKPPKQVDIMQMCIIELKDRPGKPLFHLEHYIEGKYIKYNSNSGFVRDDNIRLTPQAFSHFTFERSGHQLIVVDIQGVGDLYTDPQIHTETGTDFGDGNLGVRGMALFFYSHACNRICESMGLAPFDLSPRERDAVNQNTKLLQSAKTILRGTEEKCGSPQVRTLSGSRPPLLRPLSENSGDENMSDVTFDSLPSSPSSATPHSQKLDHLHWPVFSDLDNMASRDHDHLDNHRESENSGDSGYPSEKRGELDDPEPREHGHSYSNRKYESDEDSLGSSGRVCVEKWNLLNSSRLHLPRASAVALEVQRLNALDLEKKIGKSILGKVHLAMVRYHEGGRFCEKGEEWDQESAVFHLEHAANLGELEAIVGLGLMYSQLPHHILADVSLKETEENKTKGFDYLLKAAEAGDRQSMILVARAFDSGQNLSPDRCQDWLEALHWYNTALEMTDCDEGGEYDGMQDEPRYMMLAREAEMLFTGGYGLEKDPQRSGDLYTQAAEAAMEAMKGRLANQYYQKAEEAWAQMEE

[6] = target: Serine/threonine-protein kinase 4 (Homo sapiens) (UniProt Q13043); assay: Inhibition of MST1 Lys2 labeling site harbouring IHRDIKAGNILLNTEGHAK in human Huh-7 cells at 1 uM by KiNativ Profiling analysis relative to control
Serine/threonine-protein kinase 4 (Homo sapiens), sequence (Q13043 whole entry, looked up): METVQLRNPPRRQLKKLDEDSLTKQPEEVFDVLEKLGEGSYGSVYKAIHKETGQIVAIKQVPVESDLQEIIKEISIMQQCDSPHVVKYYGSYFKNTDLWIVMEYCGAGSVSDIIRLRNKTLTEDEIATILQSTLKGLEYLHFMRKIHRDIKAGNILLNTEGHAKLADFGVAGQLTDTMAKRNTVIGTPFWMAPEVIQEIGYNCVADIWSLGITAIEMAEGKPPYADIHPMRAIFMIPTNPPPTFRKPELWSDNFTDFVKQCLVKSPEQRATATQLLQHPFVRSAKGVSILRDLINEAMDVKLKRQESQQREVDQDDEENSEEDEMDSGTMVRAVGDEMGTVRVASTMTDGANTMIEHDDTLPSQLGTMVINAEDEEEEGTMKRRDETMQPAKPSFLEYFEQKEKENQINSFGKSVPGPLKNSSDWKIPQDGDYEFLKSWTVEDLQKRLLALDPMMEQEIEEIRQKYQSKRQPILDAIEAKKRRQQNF

[7] = target: Serine/threonine-protein kinase PLK1 (Homo sapiens) (UniProt P53350); assay: Inhibition of PLK1 Lys2 labeling site in human A-375 cells at 0.05 uM by KiNativ Profiling analysis relative to control; format: cell-based
Serine/threonine-protein kinase PLK1 (Homo sapiens), sequence (P53350 whole entry): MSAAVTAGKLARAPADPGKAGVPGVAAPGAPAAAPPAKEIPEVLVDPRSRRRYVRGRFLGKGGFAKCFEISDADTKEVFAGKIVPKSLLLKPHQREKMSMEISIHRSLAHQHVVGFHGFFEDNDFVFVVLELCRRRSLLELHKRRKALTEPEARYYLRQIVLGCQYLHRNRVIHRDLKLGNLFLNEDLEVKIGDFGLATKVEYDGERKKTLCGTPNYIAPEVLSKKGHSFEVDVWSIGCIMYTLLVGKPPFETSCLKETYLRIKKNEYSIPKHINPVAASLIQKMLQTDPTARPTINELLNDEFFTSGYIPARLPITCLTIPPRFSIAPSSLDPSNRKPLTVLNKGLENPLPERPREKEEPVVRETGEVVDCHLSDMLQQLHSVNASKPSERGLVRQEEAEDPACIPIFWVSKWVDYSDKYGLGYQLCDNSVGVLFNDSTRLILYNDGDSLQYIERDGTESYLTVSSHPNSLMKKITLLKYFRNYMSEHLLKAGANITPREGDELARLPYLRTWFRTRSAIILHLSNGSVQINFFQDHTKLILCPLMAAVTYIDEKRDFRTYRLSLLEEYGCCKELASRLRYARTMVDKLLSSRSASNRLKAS

`CCN1CCN(Cc2ccc(NC(=O)c3ccc(C)c(Oc4ccnc5[nH]ccc45)c3)cc2C(F)(F)F)CC1` showed an inhibition [1] of 30.1%, an inhibition [2] of 0.8% and an inhibition [3] of -9.8%. The inhibition [4] was “inactive”.

In the case of `CNc1cc(Oc2cc(C(=O)Nc3cc(N4CCN(C)CC4)cc(C(F)(F)F)c3)ccc2C)ncn1`, the inhibition [5] was -3.5% and the inhibition [6] was -0.8%.

Work on `CCN1CCN(Cc2ccc(NC(=O)c3ccc(C)c(/C=C/c4cnc5[nH]ccc5c4OC)c3)cc2C(F)(F)F)CC1` yielded an inhibition [7] of 1.3%.
